The test system of data set [1] is DU 145 prostate tumor cell line. The data set is described as follows: mouse model of prostate cancer, efficacy against established tumors. Type of data set: in vivo. To be noted: Example 4; DU 145 prostate tumors in mice; COX 125 ppm in feed; VEGF 100 mg/kg p.o. q.d. 5x/week for three weeks. How it is done: (§1) 5-methyl-2-(2′-chloro-6′-fluoro-anilino)-phenyl acetic acid (“COX”) and 1-(4-chloroanilino)-4-(4-pyridylmethyl)phthalazine (“VEGFR”) are tested as single agents and together as combination therapy in a mouse model of prostrate cancer (orthoscopically implanted DU 145 prostate tumor cell line) for efficacy against established tumors. VEGFR is administered to the mice orally at 100 mg/kg, 5 times a week for three weeks, as a suspension in 0.5% microcrystalline cellulose, 0.1% Tween 80 in water. COX is administered in the feed mix at a concentration of 125 ppm.

The test system of another data set is intestinal polyps. As to the kind of experiment: mouse model of adenomatous polyposis, prevention and treatment of intestinal polyps. To be noted: COX 125 ppm in feed ad libitum. Format: in vivo. How it is done: (§2) 5-methyl-2-(2′-chloro-6′-fluoro-anilino)-phenyl acetic acid (“COX”) and (+)-discodermolide (“disco”) are tested as single agents and together as combination therapy in a mouse model of adenomatous polyposis for the prevention and treatment of intestinal polyps. (+)-Discodermolide is administered once intravenously to the mice at 15 mg/kg as a solution in 16.7% Chremophor EI, 8.3% ethanol, and 75% D5W. COX is administered in the feed mix at a concentration of 125 ppm.
(§3) 5-methyl-2-(2′-chloro-6′-fluoro-anilino)-phenyl acetic acid (“COX”) and (R)-4-(4-((1-phenylethyl)amino)-7H-pyrrolo(2,3-d)pyrimidin-6-yl)-phenol (“EGFR”) are tested as single agents and together as combination therapy in a mouse model of adenomatous polyposis for the prevention and treatment of intestinal polyps. EGFR is administered to the mice orally at 50 mg/kg, as a suspension in 0.5% carboxymethylcellulose, b.i.d., 5 days a week for three weeks. COX is administered in the feed mix at a concentration of 125 ppm.
(§4) 5-methyl-2-(2′-chloro-6′-fluoro-anilino)-phenyl acetic acid (“COX”) and 1-(4-chloroanilino)-4-(4-pyridylmethyl)phthalazine (“VEGFR”) are tested as single agents and together as combination therapy in a mouse model of adenomatous polyposis for the prevention and treatment of intestinal polyps. VEGFR is administered to the mice orally at 100 mg/kg, 5 times a week for three weeks. COX is administered in the feed mix at a concentration of 125 ppm.

The conditions of data set [2]: COX 125 ppm in feed ad libitum. How it is done:
as §2, §3, §4

For data set [3] the following is noted: Example 4; DU 145 prostate tumors in mice; COX 125 ppm in feed; VEGF 100 mg/kg p.o. q.d. 5x/week for three weeks. How it is done: as §1
Data set [4] concerns tumor vascular permeability. To be noted: studies in humans; cited from earlier work.
[5] abbreviates: Example 1, first experiment, disco 15 mg/kg i.v. once.
[6] abbreviates: Example 1, second (duplicate) experiment, disco 15 mg/kg i.v. once.
The mark [7] stands for this setting: Example 2, first experiment, EGFR 50 mg/kg p.o. b.i.d. 5x/week for three weeks.
The mark [8] stands for this setting: Example 2, second (duplicate) experiment, EGFR 50 mg/kg p.o. b.i.d. 5x/week for three weeks.
The mark [9] stands for this setting: Example 3, first experiment, VEGF 100 mg/kg p.o. 5x/week for three weeks.
[10] abbreviates: Example 3, second (duplicate) experiment, VEGF 100 mg/kg p.o. 5x/week for three weeks.

Where two headings read alike, the source gives them in different places.

Regarding `Cc1ccc(Nc2c(F)cccc2Cl)c(CC(=O)O)c1` [COX, 5-methyl-2-(2′-chloro-6′-fluoro-anilino)-phenyl acetic acid], the “% T/C (tumors)” value in data set [1] is recorded as 80%. Besides, the “Mean Tumor Weight (mg ± SEM)” value in data set [1] is reported as 343 ± 52 mg. Moreover, the “% T/C (polyps)” value with intestinal polyps (setting [5]) is given as 56%; in the data set with intestinal polyps (setting [6]), 57%; in the data set on intestinal polyps (setting [7]) it was 43%; in the data set on intestinal polyps (setting [8]), 36%; in the data set with intestinal polyps (setting [9]), 44%; in the data set on intestinal polyps (setting [10]) it was 44%. The “Mean Intestinal Polyp Count (# ± SEM)” value in the data set with intestinal polyps (setting [5]) was 15 ± 0.4 #; with intestinal polyps (setting [6]), 13 ± 0.2 #; with intestinal polyps (setting [7]), 9 ± 0.4 #; with intestinal polyps (setting [8]) it was 12 ± 0.9 #; in the data set on intestinal polyps (setting [9]) it was 12 ± 0.22 #; in the data set with intestinal polyps (setting [10]) it was 13 ± 0.18 #. Moreover, the Dead/Total in data set [2] (setting [5]), in data set [2] (setting [6]), in data set [2] (setting [7]), in data set [2] (setting [8]), in data set [2] (setting [9]) and in data set [2] (setting [10]) was 0/7 in each case. The Dead/Total in data set [3] is on record as 1/12.

As for `C[C@@H](Nc1ncnc2[nH]c(-c3ccc(O)cc3)cc12)c1ccccc1` [EGFR, (R)-4-(4-((1-phenylethyl)amino)-7H-pyrrolo(2,3-d)pyrimidin-6-yl)-phenol], the “% T/C (polyps)” value came out at 37% with intestinal polyps (setting [7]) and 27% with intestinal polyps (setting [8]). For the same compound, the “Mean Intestinal Polyp Count (# ± SEM)” value in the data set on intestinal polyps (setting [7]) is listed as 8 ± 0.2 #; in the data set with intestinal polyps (setting [8]), 9 ± 0.3 #. Further, the Dead/Total in data set [2] (setting [7]) and in data set [2] (setting [8]) was 0/7 each time.

Turning to `Clc1ccc(Nc2nnc(Cc3ccncc3)c3ccccc23)cc1` [VEGF, 1-(4-chloroanilino)-4-(4-pyridylmethyl)phthalazine], in data set [1], the “% T/C (tumors)” value is on record as 57% and the “Mean Tumor Weight (mg ± SEM)” value was found to be 243 ± 37 mg. Also, in data set [4], the tolerability entry is on record as “well tolerated” and the tumor vascular permeability entry was “reduce tumor vascular permeability”. For the same compound, in the data set on intestinal polyps (setting [9]), the “% T/C (polyps)” value is 57% and the “Mean Intestinal Polyp Count (# ± SEM)” value is listed as 15 ± 0.48 #. For the same compound, in the data set on intestinal polyps (setting [10]), the “% T/C (polyps)” value is on record as 60% and the “Mean Intestinal Polyp Count (# ± SEM)” value was 17 ± 0.19 #. Besides, the Dead/Total in data set [2] (setting [9]) was 0/6. In data set [2] (setting [10]), the Dead/Total is on record as 0/7. Moreover, the Dead/Total in data set [3] was 1/12.

Turning to (+)-discodermolide, in the data set on intestinal polyps (setting [5]), the “% T/C (polyps)” value amounted to 56% and the “Mean Intestinal Polyp Count (# ± SEM)” value is listed as 15 ± 0.2 #. Moreover, in the data set with intestinal polyps (setting [6]), the “% T/C (polyps)” value is on record as 64% and the “Mean Intestinal Polyp Count (# ± SEM)” value is 15 ± 0.22 #. Besides, in data set [2] (setting [5]), the “% Body Wt. Change” value was “+0.9 ± 0.1%” and the Dead/Total was 0/7. Further, in data set [2] (setting [6]), the “% Body Wt. Change” value is “+4.0 ± 0.12%” and the Dead/Total was 0/7.

These data come from US20110046190A1, “COMBINATIONS COMPRISING A SELECTIVE CYCLOOXYGENASE-2 INHIBITOR” (priority 2001, published 2011).
